Values quoted from earlier work, collected in patent US20230170070A1, “SYSTEM AND METHOD FOR PROVIDING FERTILITY ENHANCING DIETARY RECOMMENDATIONS IN INDIVIDUALS WITH SPERM CONDITIONS” (SOCIETE DES PRODUITS NESTLE S.A., priority 2020, published 2023).
Read-outs that look alike come from different tables or passages of the source. One block for each compound: values may come before it.

Key:
sperm cells = details: excessive alcohol
oxidative stress status = details: exogenous supplementation; both in vitro and in vivo
semen quality [1] = details: for semen quality: In RCTs
[2] = for pregnancy rate in the female partner: In RCTs
semen quality [3] = details: from cold water fish
[4] = among men with astheno- or oligoasthenozoospermia

- hormones in men (sperm cells): decreases hormones in
- sperm cells (sperm cells): men and degenerates
Compound: CCO [Alcohol]

Compound: O=C(O)CCCCC1CCSS1 (stereo not drawn) [Alpha-lipoic acid (ALA), Alpha-lipoic acid]
- oxidative stress status (oxidative stress status): improve oxidative stress

Compound: COc1cc(/C=C/C(=O)CC(=O)/C=C/c2ccc(O)c(OC)c2)ccc1O [Curcumin]
- semena quality parameters (semen quality [1]; among oligoasthenoteratozoospermic men): Curcumin improved

Compound: N[C@@H](CCC(=O)N[C@@H](CS)C(=O)NCC(=O)O)C(=O)O [Glutathione]
- sperm concentration (semen quality [1]; glutathione supplementation): Improves sperm
- sperm morphology (semen quality [1]; glutathione supplementation): Improves sperm
- sperm motility (semen quality [1]; glutathione supplementation): Improves sperm

Compound: CC(=O)O[C@H](CC(=O)[O-])C[N+](C)(C)C [L-acetyl carnitine (LAC), L-acetyl carnitine]
- sperm concentration (semen quality [1]; [4]): can significantly improve
- total sperm counts (semen quality [1]; [4]): can significantly improve

Compound: C[N+](C)(C)C[C@H](O)CC(=O)[O-] [L-carnitine]
- sperm concentration (semen quality [1]; [4]): can significantly improve
- total sperm counts (semen quality [1]; [4]): can significantly improve

Compound: CC(C)=CCC/C(C)=C/C=C/C(C)=C/C=C/C(C)=C/C=C/C=C(C)/C=C/C=C(C)/C=C/C=C(\C)CCC=C(C)C [Lycopene]
- sperm parameters (semen quality [1]; in vivo): Improve sperm

Compound: O[C@H]1[C@H](O)[C@@H](O)[C@H](O)[C@@H](O)[C@H]1O [Myoinositol]
- progressive motility (semen quality [1]; myoinositol supplementation): increase in sperm
- sperm concentration (semen quality [1]; myoinositol supplementation): increase in sperm
- sperm count (semen quality [1]; myoinositol supplementation): increase in sperm

Compound: [Se] [Selenium]
- total sperm motility (semen quality [1]; compared with placebo): increase in total sperm

Compound: O=C1O[C@H]([C@@H](O)CO)C(O)=C1O [Vitamin C]
- progressive sperm motility (semen quality [1]; in vivo): increase in progressive

Compound: C=C1CC[C@H](O)C/C1=C/C=C1\CCC[C@]2(C)[C@@H]([C@H](C)CCCC(C)C)CC[C@@H]12 [Vitamin D]
- live birth rate ([2]; among oligozoospermic men, high-dose supplementation compared to placebo): uptake. A higher live

Compound: [Zn] [Zinc]
- semen quality (semen quality [1]): shown to increase
- pregnancy rate in the female partner [2]: shown to increase

Compound: Vitamin E
- semen quality (semen quality [1]): been shown to increase
- pregnancy rate in the female partner [2]: been shown to increase

- non-genomic effects on sperm capacitation and acrosome reaction (sperm): genomic negative
Compound: isoflavones

Compound: omega-3 fatty acids
- influence on sperm morphology (semen quality [3]): positive influence
